Data published in patent US20120065165A1, “COMPOSITIONS AND METHODS OF TREATING ENDOTHELIAL DISORDERS” (ARGINETIX, INC, priority 2008, published 2012).

What was measured:
[1] = test system: tissue explants from diabetic ZDF rats; assay: Ex vivo ABH treatment of tissue explants from type 2 diabetic ZDF rats (Example 6); format: cell-based, rat; conditions: vs ZLC rats
Description: Biochemical and functional parameters of endothelial functions in a model of type 2 diabetes (Zucker Diabetic Fatty (ZDF) Rats) and in a control rat strain (Zucker Lean Control (ZLC) rat), are used to investigate the ex vivo effectiveness of ABH in improving these parameters. Vascular arginase activity and its role in the development of diabetic endothelial pathology have been previously characterized in models of Type 1 diabetes (Jelodar, et al., 2007 J. Reprod. Dev. 53: 317-321; Romero, et al., 2008 Circ. Res. 102: 95-102). […] Vascular endothelial function is measured using organ chambers in isolated rat arterial rings and in strips of erectile tissue collected from each rat strain.
ZDF rats have a mutation in the gene for the leptin receptor. […] Arginase I and II and eNOS mRNA and protein concentrations in these tissues are determined by RT-PCR and Western blot, respectively. Arginase activity is measured, as described in Example 4, by homogenizing the rat vessels in lysis buffer, removing cellular debris by centrifugation, and monitoring the hydrolysis of L-arginine using calorimetric determination of urea after the addition of isonitrosopropiophenone. […] The cellular location of arginase in this model of type 2 diabetes is determined by comparing the results of RT-PCR, Western blot, and arginase activity assays in endothelial-intact and endothelial-denuded aortic rings. […]

[2] = test system: aged Fisher rats; assay: Erectile function: intracavernous pressure after cavernous nerve stimulation in aged rats; format: in vivo, rat; conditions: ABH 6 mg/kg in drinking water 28 days
Method: Aged (22-26 months) Fisher rats were given either ABH (6 mg/kg in their drinking water) or plain water for 28 days. Young (4-8 months) were given plain water for 28 days. Rats were then anesthetized and erectile function was evaluated as an indicator of vascular function, by measuring intra-cavernous pressure following electrical stimulation of the cavernous nerve using an electrode placed around the pelvic nerve which innervates the penis (Cama, et al., 2003 Biochemistry 42: 8445-8451). The change in intracavernosal pressure was measured via a catheter placed in the corpora cavernosa. A range of stimulation frequencies were used to measure relaxation effects (and consequentially vascular dependent erectile responses) over their entire functional range.

[3] = cavernous nerve stimulation, vs controls

## N[C@@H](CCCCB(O)O)C(=O)O [ABH, 2(S)-Amino-6-boronohexanoic acid]
[1]
  biochemical (arginase activity, NO, ROS) and functional (vascular endothelial, erectile) parameters: return these biochemical and functional parameters to values that are similar to those of ZLC rats
[2]
  all penile hemodynamic parameters after CNS: marked improvement
[2]; [3]
  ratio of mean peak intracavernous pressure (ICP) to mean arterial pressure (MAP): marked increase
  total ICP (area under the erectile curve): marked increase
